According to paper PMC10004634 (PLOS ONE, 2023):

Test system: U-2932 cells
Test: SILAC phosphoproteomic analysis
Method: For differential SILAC encoding, both cells were grown in arginine- and lysine-deficient culture medium containing light (Arg0/Lys0) or heavy (Arg10/Lys8) isotopic forms of L-arginine and L-lysine (SILAC medium). […] For mass spectrometric analysis, phosphopeptide-enriched samples were loaded onto a reversed phase analytical column, resolved by an acetonitrile gradient using a nanoflow HPLC system and directly electrosprayed via a nanoelectrospray ion source into an LTQ-Orbitrap Velos mass spectrometer (Thermo Fisher Scientific). […] A false discovery rate (FDR) of 0.01 was selected for protein and peptide identification, and a posterior error probability of ≤0.1 for each peptide-to-spectral match was required. The resulting list of phosphosites exported from the MaxQuant software was filtered for class-I sites (only serine, threonine, or tyrosine assignments with a localization probability of ≥0.75) [33] and used for all subsequent biostatistical analysis. […] Gaussian regression analysis on the histogram plot of these log2-transformed ratios was performed using Sigmaplot (version 10.0; Systat Software Inc.). The obtained values for the mean and standard deviation across the whole quantitative dataset were used to determine thresholds for significant regulation of at least ±2.5 σ. […] Furthermore, only phosphosites conforming to this criterion and showing consistent regulation in both biological replicates were considered as regulated.

Question: Which results are given for `CC#CC(=O)N1CC[C@@H](n2c(=O)n(-c3ccc(Oc4ccccc4)cc3)c3c(N)ncnc32)C1` [Tirabrutinib]?
Answer: number of downregulated (suppressed) phosphorylation sites (1 μM, 1 h, ratio <0.664): 30; number of upregulated (induced) phosphorylation sites (1 μM, 1 h, ratio >1.506): four; Tirabrutinib/ctrl. rep. 1 (AKT1S1 S88): 1.16; Tirabrutinib/ctrl. rep. 2 (AKT1S1 S88): 1.03; Tirabrutinib/ctrl. rep. 1 (AKT1S1 S183): 0.86; Tirabrutinib/ctrl. rep. 2 (AKT1S1 S183): 0.93; Tirabrutinib/ctrl. rep. 2 (AKT1S1 T97): 0.84; Tirabrutinib/ctrl. rep. 1 (AKT1S1 T246): 0.84; Tirabrutinib/ctrl. rep. 2 (AKT1S1 T246): 0.87; Tirabrutinib/ctrl. rep. 2 (AKT1 S124): 0.96; Tirabrutinib/ctrl. rep. 1 (AKT2 S126): 1.09; Tirabrutinib/ctrl. rep. 2 (AKT2 S126): 0.97; Tirabrutinib/ctrl. rep. 1 (ATF2 S90): 0.87; Tirabrutinib/ctrl. rep. 2 (ATF2 S90): 0.93; Tirabrutinib/ctrl. rep. 1 (ATF2 S112): 1.02; Tirabrutinib/ctrl. rep. 2 (ATF2 S112): 1.00; Tirabrutinib/ctrl. rep. 1 (ATF2 T71): 0.99; Tirabrutinib/ctrl. rep. 2 (ATF2 T71): 0.86; Tirabrutinib/ctrl. rep. 1 (ATF2 T73): 0.69; Tirabrutinib/ctrl. rep. 2 (CARD11 S483): 1.78; Tirabrutinib/ctrl. rep. 1 (CARD11 S610): 0.99; Tirabrutinib/ctrl. rep. 2 (CARD11 S610): 0.96; Tirabrutinib/ctrl. rep. 1 (CARD11 S903): 1.10; Tirabrutinib/ctrl. rep. 2 (CARD11 S903): 1.31; Tirabrutinib/ctrl. rep. 1 (CARD11 S910): 1.78; Tirabrutinib/ctrl. rep. 2 (CARD11 S910): 0.95; Tirabrutinib/ctrl. rep. 1 (CARD11 S942): 0.96; Tirabrutinib/ctrl. rep. 2 (CARD11 S942): 0.97; Tirabrutinib/ctrl. rep. 1 (ERF S21): 0.26; Tirabrutinib/ctrl. rep. 1 (HSP27 S78): 1.14; Tirabrutinib/ctrl. rep. 2 (HSP27 S78): 0.79; Tirabrutinib/ctrl. rep. 1 (HSP27 S82): 1.09; Tirabrutinib/ctrl. rep. 2 (HSP27 S82): 0.76; Tirabrutinib/ctrl. rep. 1 (HSP27 S86): 0.81; Tirabrutinib/ctrl. rep. 2 (HSP27 S86): 1.16; Tirabrutinib/ctrl. rep. 1 (IKBKB S550): 0.86; Tirabrutinib/ctrl. rep. 2 (IKBKB S550): 0.97; Tirabrutinib/ctrl. rep. 1 (IKBKB S672): 1.04; Tirabrutinib/ctrl. rep. 2 (IKBKB S672): 1.20; Tirabrutinib/ctrl. rep. 1 (IKBKG S455): 1.15; Tirabrutinib/ctrl. rep. 2 (IKBKG S455): 0.87; Regulation of Phosphorylation Site (MAPK1 T185): ↓; Tirabrutinib/ctrl. rep. 1 (MAPK1 T185): 0.23; Tirabrutinib/ctrl. rep. 2 (MAPK1 T185): 0.41; Regulation of Phosphorylation Site (MAPK1 Y187): ↓; Tirabrutinib/ctrl. rep. 1 (MAPK1 Y187): 0.23; Tirabrutinib/ctrl. rep. 2 (MAPK1 Y187): 0.41; Tirabrutinib/ctrl. rep. 1 (NHE1 S602): 0.96; Tirabrutinib/ctrl. rep. 2 (NHE1 S602): 0.92; Tirabrutinib/ctrl. rep. 1 (NHE1 S605): 0.95; Tirabrutinib/ctrl. rep. 2 (NHE1 S605): 0.92; Tirabrutinib/ctrl. rep. 1 (NHE1 S785): 1.08; Tirabrutinib/ctrl. rep. 2 (NHE1 S785): 1.26; Tirabrutinib/ctrl. rep. 1 (NHE1 S796): 0.80; Tirabrutinib/ctrl. rep. 2 (NHE1 S796): 0.78; Tirabrutinib/ctrl. rep. 1 (PEA15 S82): 0.89; Tirabrutinib/ctrl. rep. 2 (PEA15 S82): 0.86; Tirabrutinib/ctrl. rep. 1 (PEA15 S137): 1.18; Tirabrutinib/ctrl. rep. 2 (PEA15 S137): 1.03; Tirabrutinib/ctrl. rep. 1 (PIK3AP1 S642): 1.22; Tirabrutinib/ctrl. rep. 2 (PIK3AP1 S642): 0.88; Tirabrutinib/ctrl. rep. 1 (PIK3AP1 T151): 1.02; Tirabrutinib/ctrl. rep. 2 (PIK3AP1 T151): 1.07; Tirabrutinib/ctrl. rep. 1 (PLCG2 S341): 0.84; Tirabrutinib/ctrl. rep. 2 (PLCG2 S341): 1.25; Tirabrutinib/ctrl. rep. 1 (PLCG2 S871): 0.99; Tirabrutinib/ctrl. rep. 2 (PLCG2 S871): 0.98; Tirabrutinib/ctrl. rep. 1 (PLCG2 S1236): 1.17; Tirabrutinib/ctrl. rep. 2 (PLCG2 S1236): 0.99; Tirabrutinib/ctrl. rep. 1 (PRKCB T497): 0.99; Tirabrutinib/ctrl. rep. 2 (PRKCB T497): 1.00; Tirabrutinib/ctrl. rep. 1 (PRKCB T500): 0.99; Tirabrutinib/ctrl. rep. 2 (PRKCB T500): 1.00; Tirabrutinib/ctrl. rep. 1 (PRKCB T641): 1.02; Tirabrutinib/ctrl. rep. 2 (PRKCB T641): 1.00; Tirabrutinib/ctrl. rep. 1 (PRKD2 S189): 0.90; Tirabrutinib/ctrl. rep. 2 (PRKD2 S189): 0.70; Tirabrutinib/ctrl. rep. 1 (PRKD2 S206): 0.86; Tirabrutinib/ctrl. rep. 2 (PRKD2 S206): 0.83; Tirabrutinib/ctrl. rep. 1 (PRKD2 S375): 0.91; Tirabrutinib/ctrl. rep. 2 (PRKD2 S375): 0.81; Tirabrutinib/ctrl. rep. 1 (PRKD2 S706): 0.77; Tirabrutinib/ctrl. rep. 2 (PRKD2 S706): 0.50; Tirabrutinib/ctrl. rep. 1 (PRKD2 S710): 0.90; Tirabrutinib/ctrl. rep. 2 (PRKD2 S710): 0.77; Tirabrutinib/ctrl. rep. 2 (PRKD3 S6): 0.88; Tirabrutinib/ctrl. rep. 2 (PRKD3 S27): 0.99; Tirabrutinib/ctrl. rep. 1 (PRKD3 S30): 0.97; Tirabrutinib/ctrl. rep. 1 (PRKD3 S31): 0.99; Tirabrutinib/ctrl. rep. 2 (PRKD3 S31): 0.97; Tirabrutinib/ctrl. rep. 1 (PRKD3 S44): 1.09; Tirabrutinib/ctrl. rep. 2 (PRKD3 S44): 1.04; Tirabrutinib/ctrl. rep. 1 (PRKD3 S213): 1.29; Tirabrutinib/ctrl. rep. 2 (PRKD3 S213): 1.25; Tirabrutinib/ctrl. rep. 2 (PRKD3 S364): 1.20; Tirabrutinib/ctrl. rep. 1 (PRKD3 S376): 0.80; Tirabrutinib/ctrl. rep. 2 (PRKD3 S376): 0.94; Tirabrutinib/ctrl. rep. 1 (PRKD3 S391): 0.99; Tirabrutinib/ctrl. rep. 2 (PRKD3 S391): 0.97; Tirabrutinib/ctrl. rep. 2 (PRKD3 S543): 1.05; Tirabrutinib/ctrl. rep. 1 (PRKD3 S731): 0.72; Tirabrutinib/ctrl. rep. 2 (PRKD3 S731): 0.48; Tirabrutinib/ctrl. rep. 1 (PRKD3 S735): 0.85; Tirabrutinib/ctrl. rep. 2 (PRKD3 S735): 0.77; Tirabrutinib/ctrl. rep. 1 (RAF1 S12): 1.45; Tirabrutinib/ctrl. rep. 2 (RAF1 S12): 0.88; Tirabrutinib/ctrl. rep. 2 (RAF1 S316): 0.94; Tirabrutinib/ctrl. rep. 1 (RAF1 S377): 0.98; Tirabrutinib/ctrl. rep. 2 (RAF1 S377): 1.08; Tirabrutinib/ctrl. rep. 1 (RAF1 S641): 1.04; Tirabrutinib/ctrl. rep. 2 (RAF1 S641): 0.98; Tirabrutinib/ctrl. rep. 2 (RAF1 T661): 0.73; Tirabrutinib/ctrl. rep. 1 (RELA S238): 1.26; Tirabrutinib/ctrl. rep. 2 (RELA S238): 0.86; Tirabrutinib/ctrl. rep. 1 (RPS6KA1 S230): 0.99; Tirabrutinib/ctrl. rep. 2 (RPS6KA1 S230): 0.99; Tirabrutinib/ctrl. rep. 1 (RPS6KA1 S389): 1.55; Tirabrutinib/ctrl. rep. 2 (RPS6KA1 S389): 1.00; Tirabrutinib/ctrl. rep. 1 (RPS6KA1 S741): 1.16; Tirabrutinib/ctrl. rep. 2 (RPS6KA1 S741): 0.87; Tirabrutinib/ctrl. rep. 1 (TSC2 S1132): 1.15; Tirabrutinib/ctrl. rep. 2 (TSC2 S1132): 0.89; Tirabrutinib/ctrl. rep. 1 (TSC2 S1254): 0.44; Tirabrutinib/ctrl. rep. 2 (TSC2 S1254): 0.70; Tirabrutinib/ctrl. rep. 1 (TSC2 S1336): 1.59; Tirabrutinib/ctrl. rep. 2 (TSC2 S1336): 1.33; Tirabrutinib/ctrl. rep. 1 (TSC2 S1346): 1.14; Tirabrutinib/ctrl. rep. 2 (TSC2 S1346): 1.02; Tirabrutinib/ctrl. rep. 1 (TSC2 S1364): 0.82; Tirabrutinib/ctrl. rep. 2 (TSC2 S1364): 0.98; Tirabrutinib/ctrl. rep. 1 (TSC2 S1385): 1.01; Tirabrutinib/ctrl. rep. 2 (TSC2 S1385): 1.30; Tirabrutinib/ctrl. rep. 1 (TSC2 S1411): 0.93; Tirabrutinib/ctrl. rep. 2 (TSC2 S1411): 0.98; Tirabrutinib/ctrl. rep. 2 (TSC2 S1420): 0.93; Tirabrutinib/ctrl. rep. 2 (TSC2 S1448): 1.43; Tirabrutinib/ctrl. rep. 1 (TSC2 S1449): 1.16; Tirabrutinib/ctrl. rep. 1 (TSC2 S1452): 1.16; Tirabrutinib/ctrl. rep. 2 (TSC2 S1452): 1.04; Tirabrutinib/ctrl. rep. 1 (TSC2 S1798): 0.76; Tirabrutinib/ctrl. rep. 2 (TSC2 S1798): 0.73; Tirabrutinib/ctrl. rep. 2 (YBX1 S2): 0.99; Tirabrutinib/ctrl. rep. 2 (YBX1 S3): 0.99; Tirabrutinib/ctrl. rep. 1 (YBX1 S165): 0.98; Tirabrutinib/ctrl. rep. 2 (YBX1 S165): 0.91; Tirabrutinib/ctrl. rep. 1 (YBX1 S167): 0.91; Tirabrutinib/ctrl. rep. 2 (YBX1 S167): 1.13
